What is called pIC50 is −log10 of the IC50, conventionally taken in molar units.

pIC50: −log10 of the molar value.

T1 sequence (O75762 whole entry): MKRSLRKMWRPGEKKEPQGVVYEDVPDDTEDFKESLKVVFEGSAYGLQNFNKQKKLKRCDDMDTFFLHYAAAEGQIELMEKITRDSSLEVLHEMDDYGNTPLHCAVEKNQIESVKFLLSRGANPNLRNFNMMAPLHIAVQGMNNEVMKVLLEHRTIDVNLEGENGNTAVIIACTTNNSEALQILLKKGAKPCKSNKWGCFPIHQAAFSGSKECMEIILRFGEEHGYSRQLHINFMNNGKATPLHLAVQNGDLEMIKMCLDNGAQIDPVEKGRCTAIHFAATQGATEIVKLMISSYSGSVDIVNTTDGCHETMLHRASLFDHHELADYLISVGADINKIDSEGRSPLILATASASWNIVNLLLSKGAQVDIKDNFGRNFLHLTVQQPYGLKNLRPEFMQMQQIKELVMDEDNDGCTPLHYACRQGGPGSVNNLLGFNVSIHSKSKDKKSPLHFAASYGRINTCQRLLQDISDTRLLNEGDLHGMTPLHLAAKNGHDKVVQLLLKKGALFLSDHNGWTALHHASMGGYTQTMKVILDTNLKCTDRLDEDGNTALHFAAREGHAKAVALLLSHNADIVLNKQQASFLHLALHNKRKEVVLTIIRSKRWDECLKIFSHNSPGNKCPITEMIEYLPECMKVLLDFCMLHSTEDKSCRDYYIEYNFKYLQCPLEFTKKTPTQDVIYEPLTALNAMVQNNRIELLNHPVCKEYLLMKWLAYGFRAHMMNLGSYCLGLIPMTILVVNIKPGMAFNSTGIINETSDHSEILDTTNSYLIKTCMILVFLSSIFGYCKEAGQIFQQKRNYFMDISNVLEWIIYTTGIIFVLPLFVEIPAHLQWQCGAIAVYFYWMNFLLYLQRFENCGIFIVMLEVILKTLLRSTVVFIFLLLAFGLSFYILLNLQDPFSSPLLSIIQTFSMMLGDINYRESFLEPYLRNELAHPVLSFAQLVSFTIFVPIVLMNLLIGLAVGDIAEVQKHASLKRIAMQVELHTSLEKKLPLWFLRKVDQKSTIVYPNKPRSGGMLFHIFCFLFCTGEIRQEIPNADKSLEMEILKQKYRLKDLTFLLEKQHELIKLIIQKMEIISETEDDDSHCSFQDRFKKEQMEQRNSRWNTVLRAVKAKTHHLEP

In the first test the target is T1, human TRPA1 (Homo sapiens (Human), UniProt O75762). Kind of test: Measurement of TRPA1 antagonist activity (1): intracellular calcium increase. The class given is cell-based. The following applies: 293T cells transfected with human TRPA1 expression plasmid; allylisothiocyanate 20 μM stimulation; intracellular calcium fluorescence; read-out: hTRPA1 IC50. In outline:
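Calcium-flux readout of TRPA1 block: compound given 10 min before 20 μM (final) allylisothiocyanate, fluorescence tracked 5 min. Cells were 293T transiently expressing human TRPA1, dye-loaded 1 hr in HBSS, 20 mM HEPES, pH 7.2. Inhibition scaled between agonist-only and buffer-only responses; IC50 by sigmoid fitting.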
Consider `C#CCN([C@@H](C)C(=O)NCc1ccnc(-c2ccc(C(F)(F)F)nc2)c1)S(=O)(=O)c1cc2cc(F)ccc2o1` [Example 314, (2S)-2-[(5-fluorobenzofuran-2-yl)sulfonyl-prop-2-ynyl-amino]-N-[[2-[6-(trifluoromethyl)-3-pyridyl]-4-pyridyl]methyl]propanamide], for which the pIC50 was 8.34.
Still for that read-out and setting: under `O=C(NCc1cccc(SCc2ccc(C(F)(F)F)cc2)c1)[C@@H]1CCCN1S(=O)(=O)c1cc2ccccc2o1` [Example 315, (2S)-1-(benzofuran-2-ylsulfonyl)-N-[[3-[[4-(trifluoromethyl)phenyl]methylsulfanyl]phenyl]methyl]pyrrolidine-2-carboxamide] stands 7.66; under `O=C(NCc1cccc([S+]([O-])Cc2ccc(C(F)(F)F)cc2)c1)[C@@H]1CCCN1S(=O)(=O)c1cc2ccccc2o1` (stereo partly drawn) [Example 316, (2S)-1-(benzofuran-2-ylsulfonyl)-N-[[3-[[4-(trifluoromethyl)phenyl]methylsulfinyl]phenyl]methyl]pyrrolidine-2-carboxamide], 6.64; under `O=C(NCc1cccc(/C=C/c2ccc(C(F)(F)F)cc2)c1)[C@@H]1CCCN1S(=O)(=O)c1cc2ccccc2o1` [Example 317, (2S)-1-(benzofuran-2-ylsulfonyl)-N-[[3-[(E)-2-[4-(trifluoromethyl)phenyl]vinyl]phenyl]methyl]pyrrolidine-2-carboxamide], 7.51.
On the same count and under the same terms, as for `O=C(NCc1cccc(CCc2ccc(C(F)(F)F)cc2)c1)[C@@H]1CCCN1S(=O)(=O)c1cc2ccccc2o1` [Example 318, (2S)-1-(benzofuran-2-ylsulfonyl)-N-[[3-[2-[4-(trifluoromethyl)phenyl]ethyl]phenyl]methyl]pyrrolidine-2-carboxamide], the figure is 7.85; as for `O=C(NCc1cccc(Cc2ccccc2)c1)[C@@H]1CCCN1S(=O)(=O)c1cc2cc(F)ccc2o1` [Example 319, (2S)—N-[(3-benzylphenyl)methyl]-1-(5-fluorobenzofuran-2-yl)sulfonyl-pyrrolidine-2-carboxamide], 7.57; as for `O=C(NCc1cccc(CNc2ccc(C(F)(F)F)cn2)c1)[C@@H]1CCCN1S(=O)(=O)c1cc2ccccc2o1` [Example 320, (2S)-1-(benzofuran-2-ylsulfonyl)-N-[[3-[[[5-(trifluoromethyl)-2-pyridyl]amino]methyl]phenyl]methyl]pyrrolidine-2-carboxamide], 6.04.
As for `O=C(NCc1cccc(Sc2ccc(C(F)(F)F)cc2)c1)[C@@H]1CCCN1S(=O)(=O)c1cc2ccccc2o1` [Example 321, (2S)-1-(benzofuran-2-ylsulfonyl)-N-[[3-[4-(trifluoromethyl)phenyl]sulfanylphenyl]methyl]pyrrolidine-2-carboxamide], the negative-log IC50 (pIC50) is 7.48.
Same read-out and setting: as for `O=C(NCc1cccc(S(=O)(=O)c2ccc(C(F)(F)F)cc2)c1)[C@@H]1CCCN1S(=O)(=O)c1cc2ccccc2o1` [Example 322, (2S)-1-(benzofuran-2-ylsulfonyl)-N-[[3-[4-(trifluoromethyl)phenyl]sulfonylphenyl]methyl]pyrrolidine-2-carboxamide], the figure is 6.51.
The same measure, in the same setting: as for `O=C(NCc1cccc([S+]([O-])c2ccc(C(F)(F)F)cc2)c1)[C@@H]1CCCN1S(=O)(=O)c1cc2ccccc2o1` (stereo partly drawn) [Example 323, (2S)-1-(benzofuran-2-ylsulfonyl)-N-[[3-[4-(trifluoromethyl)phenyl]sulfinylphenyl]methyl]pyrrolidine-2-carboxamide], the figure is 6.70; as for `O=C(NCc1cccc(S(=O)(=O)Cc2ccc(C(F)(F)F)cc2)c1)[C@@H]1CCCN1S(=O)(=O)c1cc2ccccc2o1` [Example 324, (2S)-1-(benzofuran-2-ylsulfonyl)-N-[[3-[[4-(trifluoromethyl)phenyl]methylsulfonyl]phenyl]methyl]pyrrolidine-2-carboxamide], 6.31; as for `O=C(NCc1cccc(C[S+]([O-])c2ccc(C(F)(F)F)cc2)c1)[C@@H]1CCCN1S(=O)(=O)c1cc2ccccc2o1` (stereo partly drawn) [Example 325, (2S)-1-(benzofuran-2-ylsulfonyl)-N-[[3-[[4-(trifluoromethyl)phenyl]sulfinylmethyl]phenyl]methyl]pyrrolidine-2-carboxamide], 6.25.
On the same count and under the same terms, under `CNc1nc(CNC(=O)[C@@H]2CCCN2S(=O)(=O)c2cc3ccccc3o2)cc(-c2ccc(C(F)(F)F)cc2)n1` [Example 326, (2S)-1-(benzofuran-2-ylsulfonyl)-N-[[2-(methylamino)-6-[4-(trifluoromethyl)phenyl]pyrimidin-4-yl]methyl]pyrrolidine-2-carboxamide] stands 7.54; under `O=C(NCc1cc(-c2ccc(C(F)(F)F)cc2)nc(OCc2ccccc2)n1)[C@@H]1CCCN1S(=O)(=O)c1cc2ccccc2o1` [Example 327, (2S)-1-(benzofuran-2-ylsulfonyl)-N-[[2-benzyloxy-6-[4-(trifluoromethyl)phenyl]pyrimidin-4-yl]methyl]pyrrolidine-2-carboxamide], 8.37.
Regarding `CN(C)[C@@H]1C[C@@H](C(=O)NCc2ccnc(-c3ccc(C(F)(F)F)cc3O)c2)N(S(=O)(=O)c2cc3ccccc3o2)C1` [Example 334, (2S,4R)-1-(benzofuran-2-ylsulfonyl)-4-(dimethylamino)-N-[[2-[2-hydroxy-4-(trifluoromethyl)phenyl]-4-pyridyl]methyl]pyrrolidine-2-carboxamide], the pIC50 is 6.20.
Still for that read-out and setting: under `CC[C@H](NS(=O)(=O)c1cc2cc(F)ccc2o1)C(=O)NCc1cc(-c2ccc(C(F)(F)F)cn2)ccn1` [Example 335, (2S)-2-[(5-fluorobenzofuran-2-yl)sulfonylamino]-N-[[4-[5-(trifluoromethyl)-2-pyridyl]-2-pyridyl]methyl]butaneamide] stands 7.27; under `CC(C)(C)OC(=O)c1ccc(CNC(=O)[C@@H]2CCCN2S(=O)(=O)c2cc3ccccc3o2)cc1-c1ccc(C(F)(F)F)cc1` [Example 336, tert-butyl 4-[[[(2S)-1-(benzofuran-2-ylsulfonyl)pyrrolidine-2-carbonyl]amino]methyl]-2-[4-(trifluoromethyl)phenyl]-benzoate], 8.24.
On to `CN(C)C(=O)c1ccc(CNC(=O)[C@@H]2CCCN2S(=O)(=O)c2cc3ccccc3o2)cc1-c1ccc(C(F)(F)F)cc1` [Example 337, (2S)-1-(benzofuran-2-ylsulfonyl)-N-[[4-(dimethylcarbamoyl)-3-[4-(trifluoromethyl)phenyl]-phenyl]methyl]pyrrolidine-2-carboxamide], for which the pIC50 is 7.66.
With “(2S)-1-(5-fluorobenzofuran-2-yl)sulfonyl-N-[[3-[2-methyl-5-(trifluoromethyl)pyrazol-3-yl]phenyl]methyl]pyrrolidine-2-carboxamide [Example 164]”, the pIC50 was 8.15.
For “(2S)-1-(5-fluorobenzofuran-2-yl)sulfonyl-N-[[3-[[2-morpholino-4-pyridyl)-methoxy]phenyl]-methyl]pyrrolidine-2-carboxamide [Example 18]”, the pIC50 is 7.92.
On the same count and under the same terms, as for “(2S)-1-(5-fluorobenzofuran-2-yl)sulfonyl-N-[[3-[[4-(trifluoromethyl)phenyl]methoxy]-phenyl]methyl]pyrrolidine-2-carboxamide [Example 41]”, the figure is 8.89; as for “(2S)-1-(benzofuran-2-ylsulfonyl)-N-[[3-[6-(trifluoromethyl)-3-pyridyl]phenyl]methyl]pyrrolidine-2-carboxamide [Example 79]”, 8.80.

The next test concerns the target T1, human TRPA1. In words: Measurement of TRPA1 antagonist activity (2): as (1), different lot of human TRPA1 expression plasmid. The following applies: 293T cells transfected with human TRPA1, allylisothiocyanate 20 μM stimulation, calcium fluorescence, read-out: hTRPA1 IC50. Type of test: cell-based. The method, then:
Human embryonic kidney-derived 293T cells were cultured in Dulbecco's Modified Eagle Medium containing 10% fetal bovine serum, 10 unit penicillin, and 10 μg streptomycin, plated on a petri dish having a diameter of 10 cm at 3×10^6 cells, and cultured for 24 hr in a CO2 incubator. A reduced serum medium (manufactured by Invitrogen, trade name: OPTI-MEM, 600 μL), a gene transfer reagent (manufactured by Mirus Bio, trade name: Mirus TransIT-293, 18 μL), and human TRPA1 expression plasmid (6 μg) were mixed, the total amount of the mixture was added to the cells on the petri dish to allow for gene transfer. The cells were recovered about for 8 hr later, plated on a poly-D-lysine coated 384 well black/clear bottom plate at 12,000 cells/well, and cultured overnight.
Measurement of Intracellular Calcium Increase
The 384 well plate was recovered, and the medium was removed. A calcium-bonded fluorescent indicator (manufactured by Molecular Device, trade name: Calcium4 Assay Kit, 38 μL) dissolved in assay buffer (1×HBSS, 20 mM HEPES, pH 7.2) was added, and the cells were stained in a CO2 incubator for 1 hr. The cells were taken out at room temperature, stood for not less than 15 min, a test substance (10 μL) was added by a platereader FDSS7000 (Hamamatsu Photonics K.K.) equipped with a 384ch dispenser. After 10 min, allylisothiocyanate (12 μL) was further added at a final concentration of 20 μM, and changes in the relative fluorescence intensity after addition of allylisothiocyanate were measured for 5 min.
Test Substance Preparation
The test substance was dissolved in dimethyl sulfoxide and serially diluted with an assay buffer containing 0.1% bovine serum albumin (1×HBSS, 20 mM HEPES, pH 7.2) to a 4.8-fold concentration of the evaluation concentration. Allylisothiocyanate, which is a known TRPA1 activator, was dissolved in dimethyl sulfoxide to 100 mM, and further diluted 5-fold (100 μM) of the final concentration, like the test substance.
Calculation of Antagonist Activity
Under the test substance-free conditions, the maximum variation range of the fluorescence intensity before and after allylisothiocyanate stimulation was defined to be 100% activity rate, and the variation range before and after buffer stimulation was defined as 0% activity rate. The activity rate on addition of the test substance was determined, and the numerical value obtained by subtracting the activity rate from 100 was defined to be an inhibitory rate. IC50, which is the concentration of the test substance necessary for reaching the 50% inhibitory rate, was calculated from the sigmoid approximate curve by a spreadsheet software Excel-Fit.
Measurement of TRPA1 Antagonist Activity (2)
By a method similar to that in Experimental Example 1-1 except that the lot of human […] expression plasmid is different, the TRPA1 antagonist activity of the test substance was measured.
On to `O=C(NCc1cc(-c2ccc(C(F)(F)F)cc2)nc(N2CCC2)n1)[C@@H]1CCCN1S(=O)(=O)c1cc2ccccc2o1` [Example 328, (2S)-N-[[2-(azetidin-1-yl)-6-[4-(trifluoromethyl)phenyl]pyrimidin-4-yl]methyl]-1-(benzofuran-2-ylsulfonyl)pyrrolidine-2-carboxamide], for which the pIC50 was 7.80.
